Measurements: article PMC9198545, “Pharmacokinetics and Pharmacodynamics of Fungal Defensin NZX Against Staphylococcus aureus-Induced Mouse Peritonitis Model” (Frontiers in Microbiology, 2022)
In brackets after ≈: the same amount, converted by molar mass. Where two headings read alike, the source gives them in different places.

Experiments:
S. aureus E48 [1] = test: Survival rate and time-killing kinetic curves; type: cell-based, Staphylococcus aureus; settings: for time to complete killing of S. aureus E48: 2 × MIC; for Survival rate of S. aureus E48: 1/2 × to 2 × MIC for 2 h, 1 × 10^5 CFU/ml, mean n = 3
Procedure: Survival rate and time-killing kinetic curves experiments were conducted as described previously (Li et al., [2020b]). […] After incubation at various times (0, 15, 30, 60, 90, and 120 min), a volume of 100 μl of bacterial suspension was taken out from a flask and diluted to count. All assays were conducted independently in triplicate.

S. aureus E48 [2] = test: MIC after cathepsin B treatment or in MHB at pH 5.0; type: cell-based, Staphylococcus aureus; settings: for MIC at pH 5.0 compared to pH 7.4 (increase): MHB adjusted to pH 5.0, lysosomal acid environment; for change of MIC in phagolysosomal proteinase environment: cathepsin B 16 μg/ml, pH 5.0 buffer, 37°C, 1 h
Procedure: To test the effect of phagolysosomal enzyme-cathepsin B (from bovine spleen, Sigma C7800) on the antibacterial activities of peptides, NZX was diluted to 640 μg/ml in a cathepsin buffer (5-mM L-cysteine, 20-mM sodium acetate, 1-mM EDTA, pH of 5.0) and incubated with 16 μg/ml enzyme solution at 37°C for 1 h. The MIC value of NZX against S. aureus E48 was examined. NZX without enzyme solution was set as the negative control. Additionally, to mimic the intracellular condition, the MHB medium was adjusted to a specific pH value of 5.0 to determine the MIC value of NZX against S. aureus E48 in the acidic environment (Wang et al., [2019]). In all experiments, clindamycin, linezolid, daptomycin, and ampicillin acted as antibiotic control.

S. aureus E48 [3] = type: in vivo, mouse; settings: for survival rate of the mice: 7 days, n = 6; for extension of survival time: 20 mg/kg intravenous single injection
Procedure: Each mouse was received a peritonitis by intraperitoneal injection of S. aureus E48 suspended in a PBS buffer (2 × 10^8 CFU/ml, 0.5 ml). […] After therapy, the survival conditions of the mice were recorded within 7 days.

S. aureus E48 [4] = test: microbe, parasite or virus in culture; settings: for MIC: Staphylococcus aureus, E48, read-out: MIC after 30-day serial passage
Procedure: The development of drug resistance of S. aureus E48 induced by NZX and antibiotics was conducted as described previously (Li et al., [2017]). The MICs of antibacterial agents were measured according to the MICs testing method as described above. […] Then, the MIC values of the next passage were conducted again, and the experimental procedures were repeated for 30 days. The development of drug resistance was determined by the fold changes in MICs.

[5] = system: intracellular S. aureus E48 in RAW 264.7; test: Intracellular antibacterial activity in RAW 264.7 cells; type: cell-based, Staphylococcus aureus; settings: 1, 4, 16, 64 and 128 μg/ml, 24 h
Procedure: The antibacterial effects of NZX against intracellular S. aureus E48 in RAW 264.7 were determined according to a previous study (Wang et al., [2018]). The antibacterial concentrations of NZX against S. aureus E48 were set as 1, 4, 16, 64, and 128 μg/ml. Daptomycin was selected as a control because it is a polypeptide drug similar to NZX. In addition, the internalization and distribution assays of NZX in RAW 264.7 were conducted according to Wang et al. ([2019]). Briefly, RAW 264.7 cells were grown on culture dishes at 37°C for 24 h. FITC or FITC-NZX (1, 16, and 64 μg/ml) was added and incubated in the culture dishes for 24 h. The cells were washed two times with PBS and quenched by 0.04% trypan blue. Samples were analyzed by flow cytometry to determine the uptake of NZX. In distribution analysis, FITC or FITC-NZX at 64 μg/ml was added and incubated in the culture dishes for 24 h. The cells were washed two times with PBS, stained with 5 μg/ml wheat germ agglutinin (WGA)-conjugated Alexa Fluor 555 (ThermoFisher Scientific, USA) and Hoechst 33342 (ThermoFisher Scientific, USA) for 10 min, and observed by confocal microscopy (Leica TCS SP 5, Germany).

S. aureus E48 [6] = test: microbe, parasite or virus in culture
Procedure: (§1) The MICs of NZX and other antibacterial agents against S. aureus strains were conducted according to the Clinical Laboratory Standards Institute (Watts et al., [2013]). […] The wells containing antibiotics were set as positive controls. Negative control wells contained a PBS buffer and bacterial suspension without antibacterial agents. The MIC value was defined as the lowest concentration of antibacterial agents at which no visible bacteria were observed. All MIC assays were performed independently in triplicate.

[7] = system: S. aureus MRSA ATCC 43300; test: microbe, parasite or virus in culture
Procedure: as §1

S. aureus E48 [8] = test: MIC in physiological salt and serum media; type: cell-based, Staphylococcus aureus; settings: MHB adjusted to 1.25 mM CaCl2
Procedure: The physiological salt and serum stability of NZX were performed according to the previous report (Hirsch et al., [2019]).

S. aureus E48 [9] = test: Bacterial burden in organs and peritoneal fluid, mouse peritonitis model; type: in vivo; settings: 20 mg/kg, 24 h
Procedure: In this study, untreated mice that received a lethal dose of S. aureus (2 × 10^8 CFU/ml, 0.5 ml) began to die at 6 to 8 h, and all died before 24 h, which made it difficult for us to obtain the samples when the therapy effects after 24 h administration were analyzed. Therefore, the mice that received half lethal doses of S. aureus E48 (1 × 10^8 CFU/ml, 0.5 ml) were conducted in the following pharmacodynamics analysis. After 24 h therapy with NZX (5, 10, and 20 mg/kg) or daptomycin (20 mg/kg), organ tissues, including livers, lungs, spleens, hearts, and kidneys, were collected, homogenated, and plated to count bacterial burden. In addition, the total number of bacteria and intracellular bacteria counts in peritoneal fluids were determined as described by Wang et al. ([2018]). Briefly, the total bacterial CFU in the peritoneal fluid were quantified before any further procedures. In addition, the collected peritoneal fluid was centrifuged and washed to obtain peritoneal macrophage, and then extracellular bacteria were killed after treatment with 50 μg/ml lysostaphin at 37°C for 30 min. The cells were washed two times by PBS and suspended with 1 ml of cold sterile water for lysis, and the lysate was used to determine the intracellular bacterial burden.

[10] = ref Liu et al., 2020; cited from earlier work
Excerpt: However, plectasin had some limitations before clinical application, such as cytotoxicity and trypsin instability (Yang et al., [2019]). NZX (MW 4383.89 Da), a variant of plectasin with three mutation sites (D9S, M13I, and K32R), had the increased net charge (from +1 to +2) and hydrophobicity (from −0.695 to ...

[11] = design: method as in Andes et al., 2009; Brinch et al., 2009; settings: in human and mice serum, ref Andes et al., 2009, Brinch et al.; cited from earlier work
S. aureus E48 [12] = settings: ref Yang et al., 2019, cited from earlier work
Excerpt: NZX, a variant of plectasin, has garnered interest as an ideal therapeutic drug against S. aureus because of its ability to kill intracellular bacteria and good biocompatibility (Tenland et al., [2018]; Liu et al., [2020]). […] T ...

[13] = system: S. aureus MSSA ATCC 25923; test: microbe, parasite or virus in culture; settings: Staphylococcus aureus, ATCC25923|MSSA
Procedure: as §1

[14] = 20 mg/kg intravenous single injection 2 h post-infection, 2 × 10^8 CFU/ml, 0.5 ml i.p.
[15] = 20 mg/kg intravenous two times (2 h and 8 h after infection)
[16] = repeated exposure at sub-MIC for 30 days
[17] = 1 × 10^5 CFU/ml, 16–18 h at 37°C, 96-well microplate, daptomycin with 1.25 mM calcium chloride, triplicate
[18] = text summary over two strains: S. aureus MSSA ATCC 25923 and S. aureus E48

Row | Molecule | time to complete killing of S. aureus E48 (S. aureus E48 [1]) | MIC at pH 5.0 compared to pH 7.4 (increase) (S. aureus E48 [2]) | change of MIC in phagolysosomal proteinase environment (S. aureus E48 [2]) | Survival rate of S. aureus E48 (S. aureus E48 [1]) | survival rate of the mice (S. aureus E48 [3]; [14]) | survival rate of the mice (S. aureus E48 [3]; [15]) | extension of survival time (S. aureus E48 [3]) | MIC (S. aureus E48 [4]) | MIC (S. aureus E48 [6]; Staphylococcus aureus) | MIC ([7]; Staphylococcus aureus) | MIC [13, 17] | MIC [13, 18] | other results
1 | CCC[C@@H]1C[C@@H](C(=O)N[C@@H]([C@H]2O[C@H](SC)[C@H](O)[C@@H](O)[C@H]2O)[C@H](C)Cl)N(C)C1 [Clindamycin] | ≤ 2 h | ≤ 8 fold | at least 4 fold |  |  |  |  |  |  |  |  |  | 
2 | CCCCCCCCCC(=O)N[C@@H](Cc1c[nH]c2ccccc12)C(=O)N[C@H](CC(N)=O)C(=O)N[C@@H](CC(=O)O)C(=O)N[C@@H]1C(=O)NCC(=O)N[C@@H](CCCN)C(=O)N[C@@H](CC(=O)O)C(=O)N[C@H](C)C(=O)N[C@@H](CC(=O)O)C(=O)NCC(=O)N[C@H](CO)C(=O)N[C@@H]([C@H](C)CC(=O)O)C(=O)N[C@@H](CC(=O)c2ccccc2N)C(=O)O[C@@H]1C [Daptomycin] | ≤ 2 h |  | did not change | 0–83.03% | 16.7% | 100% |  |  |  |  |  |  | MIC after 30-day serial passage (S. aureus E48 [4]; [16]): 8 µg/mL (≈ 4.94 µM); reduction of intracellular S. aureus [5]: 89.74~98.53%; MIC (S. aureus E48 [6]): 1 µg/mL (≈ 0.617 µM); MIC ([7]; ATCC 43300): 0.5 µg/mL (≈ 0.309 µM); decrease of MIC under the addition of 1.25-mM CaCl2 (S. aureus E48 [8]): 8–16 fold; bacteria burdens of liver, lung and spleen compared with the untreated group (S. aureus E48 [9]): no obvious difference; reduction of intracellular bacteria burden in the peritoneal fluid (S. aureus E48 [9]; mean ± SD, n = 6): 0.66 ± 0.83 Log10 CFU/ml; reduction of total bacterial burden in the peritoneal fluid (S. aureus E48 [9]; mean ± SD, n = 6): 1.79 ± 1.05 Log10 CFU/ml
3 | plectasin |  |  |  |  |  |  |  |  |  |  |  |  | hydrophobicity [10]: −0.695; net charge [10]: +1; protein-binding degree [11]: 90%; S. aureus E48 killed (S. aureus E48 [12]; 2 × MIC, within 1 h): approximately 85.85%; time to eliminate bacteria (S. aureus E48 [12]; 2 × MIC): ≤ 2 h; MIC (S. aureus E48 [12]; strain not given, compared with Table 2): 4 µg/mL
4 | CC(=O)NC[C@H]1CN(c2ccc(N3CCOCC3)c(F)c2)C(=O)O1 [Linezolid] |  | did not influence | did not change | 94.08–99.89% | all the mice were dead | did not improve the survival rate | 2 to 4 days | 2 µg/mL (≈ 5.93 µM) | 1 µg/mL (≈ 2.96 µM) | 2 µg/mL (≈ 5.93 µM) | 2 µg/mL (≈ 5.93 µM) | 1 to 2 µg/mL (≈ 2.96 to 5.93 µM) | lives extended (S. aureus E48 [3]; 20 mg/kg intravenous two times): 2 to 6 days; increase in the MIC value after 30-day serial passage (S. aureus E48 [4]; [16]): 2 fold
5 | CC1(C)S[C@@H]2[C@H](NC(=O)[C@H](N)c3ccccc3)C(=O)N2[C@H]1C(=O)O [Ampicillin] |  | did not influence | at least 4 fold | 83.21–100.31% | all the mice were dead | 50% | 2 to 4 days | 16 µg/mL (≈ 45.8 µM) | 0.25 µg/mL (≈ 0.715 µM) | 8 µg/mL (≈ 22.9 µM) | 0.25 µg/mL (≈ 0.715 µM) | 0.25 µg/mL (≈ 0.715 µM) | 
